Source: EP0368410A2, “Optically active benzoxazines and bezothiazines and a process for their stereospecific preparation” (GIST-BROCADES N.V., priority 1988, dated 1990)
≈ marks a conversion by molar mass, not a printed value. Read-outs that look alike come from different tables or passages of the source.

What was measured:
Staph. aureus [1] = conditions: bacterium 1 of Table II (Staph. aureus); from EP 0165375; cited from earlier work
E. coli [2] = conditions: bacterium 2 of Table II (E. coli); from EP 0165375; cited from earlier work
Ps. aeruginosa [3] = conditions: bacterium 4 of Table II (Ps. aeruginosa); from EP 0165375; cited from earlier work
Staph. aureus [4] = assay: Antibacterial activity, MIC and MBC (Table II); type: cell-based; conditions: Minimum Inhibitory Concentration, assay in duplicate (two lines)
Text: (§1) GBR 23790 is (S)-9-fluoro-3-methyl-10-(4-methyl-1-piperazinyl)-2,3-dihydro-7-oxo-7H-pyrido[1,2,3-de][1,4]-benzothiazine-6-carboxylic acid, which is S-ofloxacin, but with the ring oxygen atom substituted by a ring sulfur atom. • MIC = Minimum Inhibitory Concentration (mg/I) • MBC = Minimum Bactericidal Concentration (mg/I) Each assay has been carried out in duplicate. GBR 23790 in racemic form is known from EP 0165375 (compound (p) in Table I). Its MIC-values, are for bacteria 1, 2 and 4 in the above Table II, resp. 0.78, 0.78 and 50.

Ps. aeruginosa [5] = assay: Antibacterial activity, MIC and MBC (Table II); type: cell-based; conditions: assay in duplicate (two lines); for MBC: Minimum Bactericidal Concentration; for MIC: Minimum Inhibitory Concentration
Text: as §1

Strep. faecalis = assay: Antibacterial activity, MIC and MBC (Table II); type: cell-based; conditions: Enterococcus faecalis, assay in duplicate (two lines); for MBC: Minimum Bactericidal Concentration; for MIC: Minimum Inhibitory Concentration
Text: as §1

E. coli [6] = assay: Antibacterial activity, MIC and MBC (Table II); type: cell-based; conditions: Escherichia coli, assay in duplicate (two lines); for MBC: Minimum Bactericidal Concentration; for MIC: Minimum Inhibitory Concentration
Text: as §1

[7] = Gerster c.s., 25th Intersc. Conf. Antimicrob. Agents and Chemotherapy, 1985; cited from earlier work
[8] = Pseudomonas aeruginosa, read-out: MBC

CC1CSc2c(N3CCN(C)CC3)c(F)cc3c(=O)c(C(=O)O)cn1c23 (racemic) [GBR 23790 in racemic form]
MIC-values (Staph. aureus [1]): 0.78 mg/I
MIC-values (E. coli [2]): 0.78 mg/I
MIC-values (Ps. aeruginosa [3]): 50 mg/I

C[C@H]1CSc2c(N3CCN(C)CC3)c(F)cc3c(=O)c(C(=O)O)cn1c23 [GBR 23790, (S)-9-fluoro-3-methyl-10-(4-methyl-1-piperazinyl)-2,3-dihydro-7-oxo-7H-pyrido[1,2,3-de][1,4]-benzothiazine-6-carboxylic acid]
MIC (Staph. aureus [4]): 0.16 mg/I
MIC (Staph. aureus [4]; Staphylococcus aureus, read-out: MIC): 0.08 µg/mL (≈ 0.212 µM)
MBC (Ps. aeruginosa [5]; [8]): 2.5 µg/mL (≈ 6.62 µM)
MIC (Ps. aeruginosa [5]; Pseudomonas aeruginosa): 1.25 µg/mL (≈ 3.31 µM)
MBC (Strep. faecalis): 2.5 µg/mL (≈ 6.62 µM)
MIC (Strep. faecalis): 1.25 µg/mL (≈ 3.31 µM)
MBC (E. coli [6]): 0.08 µg/mL (≈ 0.212 µM)
MIC (E. coli [6]): 0.08 µg/mL (≈ 0.212 µM)

C[C@H]1COc2c(N3CCN(C)CC3)c(F)cc3c(=O)c(C(=O)O)cn1c23 [(S)-ofloxacin, (S)-(-)-9-Fluoro-2,3-dihydro-3-methyl-10-(4-methyl-1-piperazinyl)-7-oxo-7H-pyrido[1,2,3-de][i ,4]benzoxazine-6-carboxylic acid]
MBC (Ps. aeruginosa [5]): 1.25 mg/I
MBC (Ps. aeruginosa [5]; [8]): 0.63 µg/mL (≈ 1.74 µM)
MIC (Ps. aeruginosa [5]; Pseudomonas aeruginosa): 0.63 µg/mL (≈ 1.74 µM)
MBC (Strep. faecalis): 1.25 µg/mL (≈ 3.46 µM)
MIC (Strep. faecalis): 1.25 µg/mL (≈ 3.46 µM)
MBC (E. coli [6]): 0.04 µg/mL (≈ 0.111 µM)
MIC (E. coli [6]): 0.04 µg/mL (≈ 0.111 µM)

Cc1c(F)cc2c(=O)c(C(=O)O)cn3c2c1CC[C@@H]3C [(S)-(-)-isomer of 6,7-dihydro-5,8-dimethyl-9-fluoro-1-oxo-1 ] [6,7-dihydro-5,8-dimethyl-9-fluoro-1-oxo-1 H,5H-benzo[ij]quinolizine-2-carboxylic acid]
antibacterial activity in vitro [7]: potent antibacterial activity

Cc1c(F)cc2c(=O)c(C(=O)O)cn3c2c1CCC3C (single isomer, unassigned) [(R)-(+)-isomer, 6,7-dihydro-5,8-dimethyl-9-fluoro-1-oxo-1 H,5H-benzo[ij]quinolizine-2-carboxylic acid]
antibacterial activity in vitro [7]: much less active
